Laboratory results taken from ChEMBL document CHEMBL4219095, “Synthesis and biological evaluation of 4,6-diaryl-2-pyrimidinamine derivatives as anti-breast cancer agents” (Bioorg Med Chem Lett, 2018).
Active and inactive are the calls of the source. The rule behind the calls is not given here.

What was measured:
HUVEC = assay: Antiproliferative activity against HUVEC after 48 hrs by MTT assay; assay type: functional, cell-based; settings: Homo sapiens
MCF7 [1] = assay: Antiproliferative activity against human MCF7 cells after 48 hrs by MTT assay; assay type: functional, cell-based; settings: MCF7, 48 h
Ishikawa [2] = assay: Antiproliferative activity against human Ishikawa cells after 48 hrs by MTT assay; assay type: functional, cell-based
Chorioallantoic membrane = assay: Antiangiogenic activity in chicken fertilized egg chorioallantoic membrane at 1 to 20 uM measured after 72 hrs; assay type: functional, tissue-based; settings: Gallus gallus
MCF7 [3] = assay: Effect on PgR mRNA expression in human MCF7 cells at 1 uM by SYBR Green dye based RT-PCR analysis; assay type: functional, cell-based
Ishikawa [4] = assay: Antiproliferative activity against human Ishikawa cells at >40 uM after 48 hrs by MTT assay; assay type: functional, cell-based
Ishikawa [5] = assay: Stimulation of cell proliferation in human Ishikawa cells at 10 uM after 48 hrs by MTT assay; assay type: ADME, cell-based
[6] = target: Vascular endothelial growth factor receptor 2 (Homo sapiens) (UniProt P35968); settings: HUVEC, at 1 µM
Chain of Vascular endothelial growth factor receptor 2 (Homo sapiens) (P35968 whole entry): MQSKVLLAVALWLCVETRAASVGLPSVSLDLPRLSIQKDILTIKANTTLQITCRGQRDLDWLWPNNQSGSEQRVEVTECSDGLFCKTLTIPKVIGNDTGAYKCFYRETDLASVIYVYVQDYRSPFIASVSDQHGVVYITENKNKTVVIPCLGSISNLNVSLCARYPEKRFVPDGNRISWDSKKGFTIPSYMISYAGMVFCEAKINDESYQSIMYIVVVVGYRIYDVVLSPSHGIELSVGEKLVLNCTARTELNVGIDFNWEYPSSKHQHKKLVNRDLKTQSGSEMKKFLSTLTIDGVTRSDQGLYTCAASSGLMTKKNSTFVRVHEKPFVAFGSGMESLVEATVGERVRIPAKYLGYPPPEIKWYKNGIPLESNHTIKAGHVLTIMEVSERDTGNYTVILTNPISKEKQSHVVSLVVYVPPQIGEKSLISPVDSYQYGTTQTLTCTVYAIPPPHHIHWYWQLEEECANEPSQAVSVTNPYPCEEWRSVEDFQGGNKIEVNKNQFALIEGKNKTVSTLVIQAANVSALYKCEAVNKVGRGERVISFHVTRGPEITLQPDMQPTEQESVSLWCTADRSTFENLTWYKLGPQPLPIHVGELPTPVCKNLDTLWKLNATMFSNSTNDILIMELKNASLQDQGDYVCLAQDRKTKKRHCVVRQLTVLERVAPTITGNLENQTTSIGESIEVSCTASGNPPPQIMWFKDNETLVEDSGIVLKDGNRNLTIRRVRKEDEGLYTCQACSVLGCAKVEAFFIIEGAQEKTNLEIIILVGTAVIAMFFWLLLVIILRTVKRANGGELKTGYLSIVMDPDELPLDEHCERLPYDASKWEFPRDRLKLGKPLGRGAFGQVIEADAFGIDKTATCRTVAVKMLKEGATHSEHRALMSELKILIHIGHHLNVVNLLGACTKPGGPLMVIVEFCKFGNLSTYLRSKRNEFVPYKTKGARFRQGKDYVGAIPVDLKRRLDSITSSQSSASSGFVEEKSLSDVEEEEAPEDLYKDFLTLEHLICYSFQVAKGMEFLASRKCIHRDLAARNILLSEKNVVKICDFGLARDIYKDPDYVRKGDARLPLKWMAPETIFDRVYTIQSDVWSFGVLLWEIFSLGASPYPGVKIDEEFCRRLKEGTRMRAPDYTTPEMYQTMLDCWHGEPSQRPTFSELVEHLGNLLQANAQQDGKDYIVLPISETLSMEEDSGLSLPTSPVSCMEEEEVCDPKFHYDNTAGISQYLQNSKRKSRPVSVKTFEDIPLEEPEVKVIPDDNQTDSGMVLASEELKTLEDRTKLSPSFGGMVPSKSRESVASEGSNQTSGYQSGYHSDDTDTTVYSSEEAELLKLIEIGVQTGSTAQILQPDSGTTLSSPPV
Description: Inhibition of VEGFR2 phosphorylation in HUVEC at 1 uM after 24 hrs by Western blot analysis

Compound | IC50 (MCF7 [1]) | inhibition [6] | IC50 (HUVEC) | IC50 (Ishikawa [2]) | Activity (Chorioallantoic membrane) | Activity (MCF7 [3]) | Activity (Ishikawa [4]) | Activity (Ishikawa [5])
CCN(CC)CC(=O)Nc1ccc(Nc2nc(-c3ccc(O)cc3)cc(-c3ccc(O)cc3)n2)cc1 | 27 µM |  | 19 µM | 17.3 µM |  |  |  | 
CCN(CC)CCNC(=O)c1c(C)[nH]c(/C=C2\C(=O)Nc3ccc(F)cc32)c1C [SUNITINIB] |  |  | 3 µM |  | Active |  |  | 
CN(C)CCOc1ccc(Nc2nc(-c3ccc(O)cc3)cc(-c3ccc(O)cc3)n2)cc1 | 19.4 µM |  | 4.7 µM | 1.6 µM |  |  |  | 
O=C(CN1CCCCC1)Nc1ccc(Nc2nc(-c3ccc(O)cc3)cc(-c3ccc(O)cc3)n2)cc1 | 26.4 µM |  | 7.4 µM | 13.5 µM |  |  |  | 
Oc1ccc(-c2cc(-c3ccc(O)cc3)nc(Nc3ccc(OCCN4CCCCC4)cc3)n2)cc1 | 6.1 µM |  | 4.6 µM | 5 µM |  |  |  | 
CCN(CC)CC(=O)Nc1ccc(Nc2nc(-c3ccc(O)cc3)cc(-c3ccc(OC)cc3)n2)cc1 | 49 µM |  | 22 µM | 16.4 µM |  |  |  | 
COc1ccc(-c2cc(-c3ccc(O)cc3)nc(Nc3ccc(OCCN4CCCCC4)cc3)n2)cc1 | 17.1 µM |  | 4.5 µM | 4.8 µM |  |  |  | 
COc1ccc(-c2cc(-c3ccc(OC)cc3)nc(Nc3ccc(OCCN4CCCCC4)cc3)n2)cc1 | 32.4 µM |  | 5.4 µM | 1.9 µM |  |  |  | 
COc1ccc(-c2cc(-c3ccc(O)cc3)nc(Nc3ccc(NC(=O)CN4CCCCC4)cc3)n2)cc1 | > 100 µM |  | 10.6 µM | 1.4 µM |  |  |  | 
CCN(CC)CCOc1ccc(Nc2nc(-c3ccc(O)cc3)cc(-c3ccc(OC)cc3)n2)cc1 | 5.6 µM |  | 3.5 µM | 6.4 µM |  |  |  | 
CC/C(=C(\c1ccccc1)c1ccc(OCCN(C)C)cc1)c1ccccc1 [TAMOXIFEN] |  |  |  |  |  | inactive | Active | Toxic
CN(C)CC(=O)Nc1ccc(Nc2nc(-c3ccc(O)cc3)cc(-c3ccc(O)cc3)n2)cc1 | 39.5 µM |  | 60.6 µM | 8 µM |  |  |  | 
Oc1ccc(-c2cc(-c3ccc(O)cc3)nc(Nc3ccc(OCCN4CCOCC4)cc3)n2)cc1 |  |  | 74.9 µM |  |  |  |  | 
CN1CCN(CCOc2ccc(Nc3nc(-c4ccc(O)cc4)cc(-c4ccc(O)cc4)n3)cc2)CC1 | 5.2 µM |  | 2.5 µM | 5.4 µM |  |  |  | 
Oc1ccc(-c2cc(-c3ccc(O)cc3)nc(Nc3ccc(OCCN4CCCC4)cc3)n2)cc1 | 57 µM |  | 4.7 µM | 4.5 µM |  |  |  | 
O=C(CN1CCOCC1)Nc1ccc(Nc2nc(-c3ccc(O)cc3)cc(-c3ccc(O)cc3)n2)cc1 | 15.6 µM |  | 47 µM | 60.4 µM |  |  |  | 
COc1ccc(-c2cc(-c3ccc(OC)cc3)nc(Nc3ccc(NC(=O)CN4CCOCC4)cc3)n2)cc1 | 33.1 µM |  |  |  |  |  |  | 
O=C(CN1CCCC1)Nc1ccc(Nc2nc(-c3ccc(O)cc3)cc(-c3ccc(O)cc3)n2)cc1 | 19.7 µM |  | 7 µM | 8.3 µM |  |  |  | 
COc1ccc(-c2cc(-c3ccc(O)cc3)nc(Nc3ccc(NC(=O)CN4CCOCC4)cc3)n2)cc1 | 19.2 µM |  | 10.2 µM | 42.2 µM |  |  |  | 

Now from value to compound, other results behind:

IC50 (MCF7 [1]) | inhibition [6] | Compound | IC50 (HUVEC) | IC50 (Ishikawa [2]) | Activity (Chorioallantoic membrane) | Activity (MCF7 [3]) | Activity (Ishikawa [4]) | Activity (Ishikawa [5])
3.6 µM |  | COc1ccc(-c2cc(-c3ccc(OC)cc3)nc(Nc3ccc(OCCN(C)C)cc3)n2)cc1 | 4.6 µM | 5.1 µM |  |  |  | 
4.6 µM |  | COc1ccc(-c2cc(-c3ccc(O)cc3)nc(Nc3ccc(OCCN4CCCC4)cc3)n2)cc1 | 3.1 µM | 5.9 µM |  |  |  | 
5.2 µM |  | CN1CCN(CC(=O)Nc2ccc(Nc3nc(-c4ccc(O)cc4)cc(-c4ccc(O)cc4)n3)cc2)CC1 | 6.8 µM | 4.9 µM |  |  |  | 
1.8 µM |  | COc1ccc(-c2cc(-c3ccc(OC)cc3)nc(Nc3ccc(NC(=O)CN4CCN(C)CC4)cc3)n2)cc1 | 5 µM | 5.7 µM |  |  |  | 
4.5 µM |  | COc1ccc(-c2cc(-c3ccc(O)cc3)nc(Nc3ccc(NC(=O)CN4CCCC4)cc3)n2)cc1 | 2.3 µM | 5.5 µM |  |  |  | 
5 µM |  | CCN(CC)CCOc1ccc(Nc2nc(-c3ccc(OC)cc3)cc(-c3ccc(OC)cc3)n2)cc1 | 2.2 µM | 4.3 µM |  |  |  | 
3.4 µM |  | COc1ccc(-c2cc(-c3ccc(O)cc3)nc(Nc3ccc(NC(=O)CN(C)C)cc3)n2)cc1 | 3.8 µM | 6.3 µM |  |  |  | 
4.1 µM |  | COc1ccc(-c2cc(-c3ccc(O)cc3)nc(Nc3ccc(NC(=O)CN4CCN(C)CC4)cc3)n2)cc1 | 4.7 µM | 4.2 µM |  |  |  | 
2.5 µM |  | COc1ccc(-c2cc(-c3ccc(OC)cc3)nc(Nc3ccc(NC(=O)CN(C)C)cc3)n2)cc1 | 2.8 µM | 3.6 µM |  |  |  | 
4.2 µM |  | COc1ccc(-c2cc(-c3ccc(OC)cc3)nc(Nc3ccc(OCCN4CCN(C)CC4)cc3)n2)cc1 | 3 µM | 5.7 µM |  |  |  | 
5.1 µM |  | CCN(CC)CCOc1ccc(Nc2nc(-c3ccc(O)cc3)cc(-c3ccc(O)cc3)n2)cc1 | 2.5 µM | 4.8 µM |  |  |  | 
2.6 µM |  | COc1ccc(-c2cc(-c3ccc(OC)cc3)nc(Nc3ccc(OCCN4CCCC4)cc3)n2)cc1 | 2.1 µM | 3.9 µM |  |  |  | 
2.2 µM | Active | COc1ccc(-c2cc(-c3ccc(OC)cc3)nc(Nc3ccc(NC(=O)CN4CCCC4)cc3)n2)cc1 | 2.5 µM | 1.9 µM | Active | inactive |  | 
4.8 µM |  | COc1ccc(-c2cc(-c3ccc(O)cc3)nc(Nc3ccc(OCCN4CCN(C)CC4)cc3)n2)cc1 | 2.4 µM | 5.3 µM |  |  |  | 
3.6 µM |  | COc1ccc(-c2cc(-c3ccc(O)cc3)nc(Nc3ccc(OCCN(C)C)cc3)n2)cc1 | 4.7 µM | 5.2 µM |  |  |  | 
